Here are results for 17 compounds from patent US20210299079A1, “MONOMETHYL FUMARATE-CARRIER CONJUGATES AND METHODS OF THEIR USE” (Flagship Pioneering Innovations V, Inc., priority 2018, published 2021).

The nature of data set [1]: Stability of conjugates in Simulated Gastric Fluid (SGF). The format is in vitro ADME. To be noted: SGF pH 1.6 with pepsin, 37° C., 1 μM compound. How it is done: Assay 1. Stability of conjugates in Simulated Gastric Fluid (SGF). This assay was used to assess the stability of a conjugate in a stomach.
Medium was prepared by dissolving 2 g of sodium chloride in 0.6 L in ultrapure water (MilliQ®, Millipore Sigma, Darmstadt, Germany). The pH was adjusted to 1.6 with 1N hydrochloric acid, and the volume was then adjusted to 1 L with purified water.
60 mg FaSSIF powder (Biorelevant™, London, UK) were dissolved in 500 mL buffer (above). Pepsin was added (0.1 mg/mL) (Millipore Sigma, Darmstadt, Germany), and the solution was stirred. The resulting SGF media were used fresh for each experiment.
Test compounds were dissolved in DMSO stock to 1 mM. An aliquot of the DMSO stock solution was removed and diluted in the SGF Media in 15 mL falcon tubes to generate a total compound concentration of 1 μM. A 1 mL aliquot was immediately removed and diluted once with 1 volume of acetonitrile for TO timepoint. The mixture was sealed and mixed at 37° C. in an incubator. Aliquots (1 mL) were removed at regular intervals and immediately quenched by the addition of 1 volume of acetonitrile. The resulting samples were analyzed by LC/MS to determine degradation rates in SGF.

A short description of data set [2]: Stability of conjugates in Simulated Intestinal Fluid (SIF). The format is in vitro ADME. Conditions: SIF pH 6.7 with pancreatin, 37° C., 1 μM compound. As for the experimental part:
Assay 2. Stability of conjugates in Simulated Intestinal Fluid (SIF). This assay was used to assess the stability of a conjugate in a small intestine.
Phosphate buffer was prepared by dissolving 0.42 g of sodium hydroxide pellets and 3.95 g of monobasic sodium phosphate monohydrate and 6.19 g of sodium chloride in ultrapure water (MilliQ®, Millipore Sigma, Darmstadt, Germany). The pH was adjusted to 6.7 using aq. HCl and aq. NaOH, as necessary, and the solution was diluted with ultrapure water to produce 1 L of the pH 6.7 buffer.
112 mg FaSSIF powder (Biorelevant™, London, UK) was dissolved in 50 mL of the pH 6.7 buffer. 2 to 3 mL of the resulting solution were then added to 500 mg pancreatin (Millipore Sigma, Darmstadt, Germany). The resulting mixture was agitated by finger tapping the vessel containing the mixture until milky suspension formed. At this time, the remainder of the 50 mL FaSSiF/pH 6.7 buffer solution was added. The resulting suspension was flipped upside down 10 times to produce SIF, which was used fresh.
Test compounds were dissolved in DMSO stock to 1 mM. An aliquot of the DMSO stock solution was removed and diluted in the SIF media in 15 mL falcon tubes to produce a mixture with a tested compound concentration of 1 μM. A 1 mL aliquot was immediately removed and diluted once with 1 volume of acetonitrile for TO timepoint. The mixture was sealed and agitated at 37° C. in an incubator. Aliquots (1 mL) were removed at regular intervals and immediately quenched by the addition of 1 volume of acetonitrile. The resulting samples were analyzed by LC/MS to determine degradation rates

For the next data set, the system named is naïve CD4+ T cells. The experiment in a line: Human Regulatory T Cell Differentiation Assay. The format is cell-based. Conditions: 6 days; for Cell viability % DMSO: viability dye; for activity at 3000 µM: IL-2, 3 mM; for activity at 100 µM: IL-2, 100 μM. As for the experimental part:
Peripheral blood mononuclear cells (PBMCs) from whole blood donated by health volunteers were separated by Ficoll-Paque gradient centrifugation and naïve CD4^+ T cells were subsequently isolated using magnet beads (EasySep™ Human Naïve CD4^+ T Cell Isolation Kit, Cambridge, Mass.). For regulatory T cell (Treg) differentiation assay, naïve CD4^+ T cells were cultured (1-10×10^4 cells) in CTS OpTmizer medium for 6 days and stimulated with 5 ng/ml TGF-β, 100 U/ml IL-2, and ImmunoCult™ Human […] T Cell Activator; Stemcell #10990) with/without our Compounds. Cell viability was determined using a viability dye (eBioscience Fixable Viability Dye eFluor 780: ThermoFisher 65-0865-14) at 1:500 dilution. The cells were gated for Treg, defined as Live, CD11c^−, CD14^−, CD19^−, CD8^−, CD4^+, CD3^+, CD25^+, FOXP3^+. Percent (%) Tregs were calculated as percentage of CD4^+, CD25^+, FOXP3^+ cells over total CD4^+ T cells. Statistical analysis was performed with GraphPad Prism Software Using One-Way ANOVA.

The mark [3] stands for this setting: Homo sapiens, 144 h, TGF-β, read-out: Treg induction % DMSO.

Where a name gives a salt, the structure may show the parent alone.

For `CCC(=O)O[C@H]1[C@H](OC(=O)/C=C/C(=O)OC)OC[C@@H](OC(=O)CC)[C@H]1OC(=O)CC` [Compound 6, Methyl ((2S,3R,4R,5R)-3,4,5-tris(propionyloxy)tetrahydro-2H-pyran-2-yl) fumarate], the “Assay 1 (SGF) (% Remaining @ 1 hour)” value in data set [1] was “C (C: >75% of the tested compound remaining)”. The “Assay 2 (SIF) (% @ Remaining 4 hours)” value in data set [2] was “A (A: <25% of the tested compound remaining)”.

For the compound `CCC(=O)O[C@H]1[C@H](OC(=O)CC)[C@@H](OC(=O)/C=C/C(=O)OC)O[C@@H](C)[C@H]1OC(=O)CC` [Compound 21, Methyl ((2R,3S,4R,5R,6S)-6-methyl-3,4,5-tris(propionyloxy)tetrahydro-2H-pyran-2-yl) fumarate], the “Assay 1 (SGF) (% Remaining @ 1 hour)” value in data set [1] is “C (C: >75% of the tested compound remaining)”. Moreover, in data set [2], the “Assay 2 (SIF) (% @ Remaining 4 hours)” value is reported as “B (B: 25-75% of the tested compound remaining)”.

As to `CCC(=O)O[C@@H]1O[C@H](COC(=O)/C=C/C(=O)OC)[C@@H](OC(=O)CC)[C@H](OC(=O)CC)[C@H]1OC(=O)CC` [Compound 22, Methyl (((2R,3R,4S,5R,6S)-3,4,5,6-tetrakis(propionyloxy)tetrahydro-2H-pyran-2-yl)methyl) fumarate], the “Assay 1 (SGF) (% Remaining @ 1 hour)” value in data set [1] was “C (C: >75% of the tested compound remaining)”. Also, in data set [2], the “Assay 2 (SIF) (% @ Remaining 4 hours)” value is “A (A: <25% of the tested compound remaining)”.

Consider `CCC(=O)O[C@@H]1[C@@H](OC(=O)CC)[C@@H](OC(=O)/C=C/C(=O)OC)O[C@H](C(=O)O)[C@H]1OC(=O)CC` [Compound 26, (2S,3S,4S,5R,6R)-6-(((E)-4-methoxy-4-oxobut-2-enoyl)oxy)-3,4,5-tris(propionyloxy)tetrahydro-2H-pyran-2-carboxylic Acid], for which, in data set [1], the “Assay 1 (SGF) (% Remaining @ 1 hour)” value is “C (C: >75% of the tested compound remaining)”. The “Assay 2 (SIF) (% @ Remaining 4 hours)” value in data set [2] is listed as “A (A: <25% of the tested compound remaining)”.

As to `CCCC(=O)O[C@H]1[C@@H](OC(=O)CCC)[C@@H](CO)O[C@@H](OC(=O)/C=C/C(=O)OC)[C@@H]1OC(=O)CCC` [Compound 44, 1-methyl (2S,3R,4S,5S,6R)-3,4,5-tris(butanoyloxy)-6-(hydroxymethyl)oxan-2-yl (2E)-but-2-enedioate], the “Assay 1 (SGF) (% Remaining @ 1 hour)” value in data set [1] is “C (C: >75% of the tested compound remaining)”. In data set [2], the “Assay 2 (SIF) (% @ Remaining 4 hours)” value was “A (A: <25% of the tested compound remaining)”.

Take `CCCC(=O)O[C@H]1[C@@H](OC(=O)CCC)[C@@H](CO)O[C@H](OC(=O)/C=C/C(=O)OC)[C@@H]1OC(=O)CCC` [Compound 45, 1-methyl (2R,3R,4S,5S,6R)-3,4,5-tris(butanoyloxy)-6-(hydroxymethyl)oxan-2-yl (2E)-but-2-enedioate]: in data set [1], the “Assay 1 (SGF) (% Remaining @ 1 hour)” value is recorded as “C (C: >75% of the tested compound remaining)”. Further, in data set [2], the “Assay 2 (SIF) (% @ Remaining 4 hours)” value was “A (A: <25% of the tested compound remaining)”.

Consider `CCC(=O)OC[C@H]1O[C@@H](OC(=O)/C=C/C(=O)OC)[C@H](OC(=O)CC)[C@@H](OC(=O)CC)[C@H]1O` [Compound 47, (2S,3R,4S,5S,6R)-5-hydroxy-3,4-bis(propanoyloxy)-6-[(propanoyloxy)methyl]oxan-2-yl 1-methyl (2E)-but-2-enedioate], for which, in data set [1], the “Assay 1 (SGF) (% Remaining @ 1 hour)” value is recorded as “C (C: >75% of the tested compound remaining)”. Moreover, the “Assay 2 (SIF) (% @ Remaining 4 hours)” value in data set [2] is on record as “A (A: <25% of the tested compound remaining)”.

For `CCC(=O)O[C@H]1[C@@H](OC(=O)CC)[C@@H](CO)O[C@H](OC(=O)/C=C/C(=O)OC)[C@@H]1OC(=O)CC` [Compound 48, (2R,3R,4S,5S,6R)-6-(hydroxymethyl)-3,4,5-tris(propanoyloxy)oxan-2-yl 1-methyl (2E)-but-2-enedioate], the “Assay 1 (SGF) (% Remaining @ 1 hour)” value in data set [1] is reported as “C (C: >75% of the tested compound remaining)”. The “Assay 2 (SIF) (% @ Remaining 4 hours)” value in data set [2] is “A (A: <25% of the tested compound remaining)”.

As to `CCC(=O)OC[C@H]1O[C@H](OC(=O)/C=C/C(=O)OC)[C@H](OC(=O)CC)[C@@H](OC(=O)CC)[C@H]1O` [Compound 49, (2R,3R,4S,5S,6R)-5-hydroxy-3,4-bis(propanoyloxy)-6-[(propanoyloxy)methyl]oxan-2-yl 1-methyl (2E)-but-2-enedioate], in data set [1], the “Assay 1 (SGF) (% Remaining @ 1 hour)” value is listed as “C (C: >75% of the tested compound remaining)”. Besides, the “Assay 2 (SIF) (% @ Remaining 4 hours)” value in data set [2] was “A (A: <25% of the tested compound remaining)”.

In the case of `CCC(=O)O[C@H]1O[C@H](COC(=O)/C=C/C(=O)OC)[C@@H](OC(=O)CC)[C@H](OC(=O)CC)[C@H]1OC(=O)CC` [Compound 50, 1-methyl 4-[(2R,3R,4S,5R,6R)-3,4,5,6-tetrakis(propanoyloxy)oxan-2-yl]methyl (2E)-but-2-enedioate], in data set [1], the “Assay 1 (SGF) (% Remaining @ 1 hour)” value is “C (C: >75% of the tested compound remaining)”. Further, the “Assay 2 (SIF) (% @ Remaining 4 hours)” value in data set [2] was “A (A: <25% of the tested compound remaining)”.

For `CCC(=O)OC[C@H]1O[C@@H](OC(=O)CC)[C@H](OC(=O)CC)[C@@H](OC(=O)CC)[C@H]1OC(=O)/C=C/C(=O)OC` [Compound 51, 1-methyl (2R,3S,4S,5R,6S)-4,5,6-tris(propanoyloxy)-2-[(propanoyloxy)methyl]oxan-3-yl (2E)-but-2-enedioate], the “Assay 1 (SGF) (% Remaining @ 1 hour)” value in data set [1] is given as “C (C: >75% of the tested compound remaining)”. Also, the “Assay 2 (SIF) (% @ Remaining 4 hours)” value in data set [2] was “A (A: <25% of the tested compound remaining)”.

As to `CC(=O)O` [acetic acid], the “Cell viability % DMSO” value in the data set with naïve CD4+ T cells (1 mM) and with naïve CD4+ T cells (3 mM) was “= (90% > <110%: =)” each time. In the data set on naïve CD4+ T cells (Homo sapiens, 144 h, TGF-β, IL-2, 1 mM, read-out: Treg induction % DMSO), the activity at 1000 µM lay within 110 to 130%. Also, in the data set on naïve CD4+ T cells (setting [3]), the activity at 3000 µM is over 130%.

`CCCC(=O)O` [butyric Acid]: the “Cell viability % DMSO” value with naïve CD4+ T cells (3 mM) was “− (<90%: −)”. Moreover, the activity at 3000 µM in the data set with naïve CD4+ T cells (setting [3]) was under 90%.

For the compound `CC[C@H]1[C@@H](O)[C@@H]2[C@H](CC[C@]3(C)[C@@H]([C@H](C)CCC(=O)O)CC[C@@H]23)[C@@]2(C)CC[C@@H](O)C[C@@H]12` [obeticholic acid, reference compound], the “Cell viability % DMSO” value with naïve CD4+ T cells (100 μM) is given as “= (90% > <110%: =)”. Moreover, in the data set with naïve CD4+ T cells (setting [3]), the activity at 100 µM lay in the range of 110 to 130%.

`CCC(=O)O` [propionic acid]: the “Cell viability % DMSO” value in the data set on naïve CD4+ T cells (3 mM) is “= (90% > <110%: =)”. Besides, in the data set on naïve CD4+ T cells (setting [3]), the activity at 3000 µM was over 130%.

For `CN(CCOc1ccc(CC2SC(=O)NC2=O)cc1)c1ccccn1` (stereo not shown) [rosiglitazone, reference compound], the “Cell viability % DMSO” value is reported as “= (90% > <110%: =)” in the data set on naïve CD4+ T cells (10 μM) and “− (<90%: −)” in the data set with naïve CD4+ T cells (100 μM). Further, the activity at 10 µM in the data set on naïve CD4+ T cells (Homo sapiens, 144 h, TGF-β, IL-2, 10 μM, read-out: Treg induction % DMSO) lay within 90 to 110%. Further, the activity at 100 µM with naïve CD4+ T cells (setting [3]) is 90 to 110%.

As for `CC(O)CC(=O)[O-].[Na+]` (stereo not drawn) [sodium β-hydroxybutyrate], the “Cell viability % DMSO” value in the data set on naïve CD4+ T cells (2 mM) is recorded as “= (90% > <110%: =)”; in the data set with naïve CD4+ T cells (20 mM), “− (<90%: −)”. The activity at 2000 µM in the data set on naïve CD4+ T cells (Homo sapiens, 144 h, TGF-β, IL-2, 2 mM, read-out: Treg induction % DMSO) lay in the range of 110 to 130%. The activity at 20000 µM in the data set on naïve CD4+ T cells (Homo sapiens, 144 h, TGF-β, IL-2, 20 mM, read-out: Treg induction % DMSO) is 90 to 110%.
